{"source": "patent US6413948B1", "about": "“Pharmaceutical compositions and methods of effecting a neuronal activity in an animal using naaladase inhibitors” (Guilford Pharmaceuticals Inc., priority 1996, dated 2002)", "key": {"[1]": {"system": "rats which had sustained dynorphin-induced spinal cord injury", "test": "In vivo assay on dynorphin-induced spinal cord injury", "set-up": "species or system Sprague-Dawley rats", "protocol": "Dynorphin-induced spinal cord injury was performed according to Long et al., JPET, Vol. 269, No. 1, pp. 358-366 (1993). In brief, spinal subarachnoid injections were delivered using 30-gauge needles inserted between the L4-L5 vertebrae of male Sprague-Dawley rats (300-350 g). The rats were anesthetized with halothane and dorsal midline incisions were made immediately rostral to the pelvic girdle. By using the vertebral processes as guides, the needle was advanced to pass into the subarachnoid space surrounding the cauda equina. Correct needle pement was verified by CSF from the needle after its insertion. […] After injections, the incisions were treated with the topical antibacterial furazolidone and closed with wound clips. […]\nNeurological function was evaluated using a 5-point ordinal scale, with scores being assigned as follows: 4=normal motor function; 3=mild paraparesis, with the ability to support weight and walk with impairment; 2=paraparesis, with the ability to make walking movements without fully supporting weight; 1=severe paraparesis, in which rats could make limited hind limb movement, but not walking movement; and 0=flaccid paralysis, with complete absence of any hind limb movement. […]\nDifferences in the neurological scores among treatment groups were determined by means of the Mann-Whitney U test or the Kruskal-Wallis test."}, "cortical cell cultures": {"system": "cortical cell cultures", "test": "In vitro assay of NAALADase inhibitors on toxicity of NAAG", "assay_type": "cell-based, rats", "details": "inhibitor 1 μM", "protocol": "Dissociated cortical cell cultures are prepared using the papain-dissociation method of Heuttner and Baughman (1986) as modified by Murphy and Baraban (1990). See TABLE VII for the Dissociated Culture Protocol as used herein. Fetuses of embryonic day 17 are removed from timed pregnancy rats (Harlan Sprague Dawley). The cortex is rapidly dissected out in Dulbecco's phosphate-buffered saline, stripped of meninges, and incubated in a papain solution for 15 minutes at 37° C. The tissue is then mechanically triturated and pelleted at 500 g (1000-2000 rpm on swinging bucket Beckman). The pellet is resuspended in a DNAase solution, triturated with a 10 ml pipette ×15-20, layered over a “10×10” solution containing albumin and trypsin inhibitor (see TABLE VII for an example of a “10×10” solution), repelleted, and resuspended in a plating medium containing 10% fetal bovine serum (HyClone A-1111-L), 5% heat-inactivated Equine serum (HyClone A-3311-L), and […] modified Earle's basal medium (MEM) (Gibco 51200-020) with high glucose (4.5 g/L), and 1 g/L NaHCO3. Each 24-well plate is pretreated with poly-D-lysine (0.5 ml/well of 10 μg/ml) for 1 h and rinsed with water before plating. Cultures are plated at 2.5×10^6 cells/ml with each well of a 24 well plate receiving 500 μl/well. Alternatively, 35 mm dishes can be plated at 2 ml/dish, 6 well plates at 2 ml/well, or 12 well plates at 1 ml/well. After plating, 50% of the medium is changed every 3-4 days with growth serum containing 5% heat-inactivated Equine serum (HyClone A3111-L), 95% modified Earle's basal medium (MEM)(Gibco 51200-020), and 1% L-Glutamine (Gibco 25030-081). Experiments are performed after 21 days in cultures. Cultures are maintained in a 5% CO2 atmosphere at 37° C. These methodologies are described in further detail below in the TABLE VII.\nAt the end of exposure, the cells are washed once with HEPES buffered saline solution and then replaced with serum free modified Earle's basal medium. The cultures are then returned to the CO2 incubator for 24 hour recovery.\nRelease of the cytosolic enzyme lactate dehydrogenase (LDH), a standard measure of cell lysis, is used to quantify injury (Koh and Choi, 1987). LDH-activity measurements are normalized to control for variability between culture preparations (Koh and Choi, 1987). […] This control measurement is subtracted from each experimental point. […] Only main effects of NAALADase inhibitors are considered; interactions between dose and condition are not examined statistically."}, "mice": {"system": "mice", "test": "In vivo toxicity of NAALADase inhibitors in mice", "source_text": "The mice were subsequently observed two times per day for 5 consecutive days."}, "[2]": {"system": "Sprague-Dawley rats, 2 hour transient middle cerebral artery occlusion (MCAO)", "test": "In vivo assay on brain injury following MCAO in Sprague-Dawley rats", "details": "100 mg/kg IP then 20 mg/kg/hr IV for 4 hours", "protocol": "In the control group (n=8), the rats received an IP injection of saline 30 minutes post-occlusion followed by IV saline infusion at a rate of 0.5 ml/hr. […] There was a 15 minute delay between IP and IV treatments for each rat. Twenty two hours following the reperfusion, the rats were euthanized and their brains were removed. Seven coronal sections (2 mm thick) were taken and stained with 1% solution of 2,3,5-triphenyltetraxolium chloride (TTC) for 20 minutes and then fixed in 10% formalin. The anterior and posterior surface of the most rostral brain section and the posterior surface of each of the other 6 sections were imaged. The quantification of infarct size of each brain was obtained using a computer aided-digital imaging analysis system (LOATS). The brain regions completely lacking TTC-staining were characterized as representative of infarcted tissue. The total infarct volume for each rat was calculated by numeric integration of the respective sequential brain areas.\nMale Sprague-Dawley rats (260-320 g) were used. Prior to the experiment, the rats were individually housed and allowed free access to food and water. Each rat received two surgeries: jugular vein cannulation for IV infusion and MCAO. During surgeries, the rat was anesthetized with […] delivered in oxygen via an inhalation mask. The body temperature was monitored and regulated at normothermic level using a homeothermic heating system. First, a PE-50 polyethylene catheter was inserted into the right jugular vein. One hour later, the rat was reanesthetized for MCAO surgery. The MCAO was achieved using the endovascular suture method described by Long et al., Stroke, Vol. 20, pp. 84-91 (1989). Specifically, the right external carotid artery (ECA) was exposed, coagulated and transected. A 3-0 monofilament nylon suture with a blunted tip was introduced into the proximal stump of the ECA via an arteriotomy and advanced 20 mm from the carotid bifurcation until it lodged in the proximal region of the anterior cerebral artery, thereby occluding the origin of the MCA. The rats were allowed to wake up; 2 hours later, the rats were reanesthetized for reperfusion, during which the nylon suture was retracted to the stump of the ECA allowing blood recirculation to the MCA."}}}
{"smiles": "O=C(O)CCC(CP(=O)(O)O)C(=O)O", "note": "(stereo not drawn) [2-(phosphonomethyl)pentanedioic acid]", "values": [{"measurement": "motor scores (in words)", "setting": "[1]; co-administered with dynorphin A, 24-hour post-injection, vs vehicle, p<0.05", "result": "significant improvement in motor scores"}, {"measurement": "rats ambulatory", "setting": "[1]; co-treated with dynorphin A, 24 hours post-injection, 15 rats", "result": 73, "unit": "%"}, {"measurement": "% Toxicity", "setting": "cortical cell cultures; NAAG 3 μM", "result": "−4.71 (n = 1) %"}, {"measurement": "% Toxicity", "setting": "cortical cell cultures; NAAG 10 μM", "result": "−3.08 ± 0.81 (n = 3) %"}, {"measurement": "% Toxicity", "setting": "cortical cell cultures; NAAG 30 μM", "result": "−4.81 ± 1.13 (n = 3) %"}, {"measurement": "% Toxicity", "setting": "cortical cell cultures; NAAG 100 μM", "result": "−2.87 ± 0.78 (n = 3) %"}, {"measurement": "% Toxicity", "setting": "cortical cell cultures; NAAG 300 μM", "result": "−2.09 ± 0.48 (n = 3) %"}, {"measurement": "% Toxicity", "setting": "cortical cell cultures; NAAG 1 mM", "result": "0.26 ± 1.11 (n = 3) %"}, {"measurement": "% Toxicity", "setting": "cortical cell cultures; NAAG 3 mM", "result": "16.83 ± 8.76 (n = 3) %"}, {"measurement": "toxicity to mice (in words)", "setting": "mice; 1 to 500 mg/kg, observed 5 days", "result": "non-toxic to mice"}, {"measurement": "Survival Rate After 5 days (%)", "setting": "mice; dose 1 mg/kg", "result": 100, "unit": "%"}, {"measurement": "Survival Rate After 5 days (%)", "setting": "mice; dose 5 mg/kg", "result": 100, "unit": "%"}, {"measurement": "Survival Rate After 5 days (%)", "setting": "mice; dose 10 mg/kg", "result": 100, "unit": "%"}, {"measurement": "Survival Rate After 5 days (%)", "setting": "mice; dose 30 mg/kg", "result": 100, "unit": "%"}, {"measurement": "Survival Rate After 5 days (%)", "setting": "mice; dose 100 mg/kg", "result": 100, "unit": "%"}, {"measurement": "Survival Rate After 5 days (%)", "setting": "mice; dose 300 mg/kg", "result": 100, "unit": "%"}, {"measurement": "Survival Rate After 5 days (%)", "setting": "mice; dose 500 mg/kg", "result": 66.7, "unit": "%"}, {"measurement": "mean total brain infarct volume", "setting": "[2]; 20 minute pre-treatment", "result": "122±26", "unit": "mm^3"}, {"measurement": "mean total brain infarct volume", "setting": "[2]; 30 minute post-treatment", "result": "208±40", "unit": "mm^3"}, {"measurement": "mean total brain infarct volume", "setting": "[2]; 60 minute post-treatment", "result": "125±57", "unit": "mm^3"}, {"measurement": "mean total brain infarct volume", "setting": "[2]; 120 minute post-treatment", "result": "133±35", "unit": "mm^3"}]}
